Where two headings read alike, the source gives them in different places.
Experiments:
[1] = test system: writhing syndrom; assay: Analgesic Activity (mice), acetic acid writhing syndrom; format: in vivo, CFLP (LATI) mice; conditions: for ED50: Mus musculus, po, read-out: Analgesic activity, ED50
Experimental: For the pharmacological tests CFLP (LATI) mice of both sexes, weighing 18 to 22 g each and male Han. Wistar (LATI) rats weighing 160 to 180 g each were used. The test materials were administered orally, in 30 mg/kg doses, in the form of a suspension containing 5% of Tween 80, one hour before the tests. 4. Analgesic Activity (mice) One hour after pretreatment, mice were administered 0.4 ml of a 0.6% acetic acid solution intraperitoneally, as a pain stimulus. The frequency of writhing syndrom is registered for 30 minutes.

[2] = test system: Hyperthermia; assay: Antipyretic Activity (rats), Brewer's yeast hyperthermia; format: in vivo, male Han. Wistar (LATI) rats; conditions: 30 mg/kg orally, 4 h after yeast, % of animals at least one centigrade lower than control
Experimental: (§1) For the pharmacological tests CFLP (LATI) mice of both sexes, weighing 18 to 22 g each and male Han. Wistar (LATI) rats weighing 160 to 180 g each were used. The test materials were administered orally, in 30 mg/kg doses, in the form of a suspension containing 5% of Tween 80, one hour before the tests.
5. Antipyretic Activity (rats)
Hyperthermia is induced in rats with Brewer's yeast suspension (0.5% of Brewer's yeast, 1% of arabic gum in a volume of 0.3 ml, s.c.). The animals are treated with the test materials 4 hours later, and the tracheal temperature of the animals is registered with an ELAB thermometer (typ. TE-3) for 4 hours.

[3] = test system: Metrazole Spasm; assay: Metrazole Spasm (mice), antispasm activity; format: in vivo, CFLP (LATI) mice; conditions: for Antispasm activity metrazole b: b) tonic extensoric spasm, 30 mg/kg orally
Experimental: as §1

[4] = test system: Tetrabenazine Catalepsy; assay: Inhibition of Tetrabenazine Catalepsy (rats); format: in vivo, male Han. Wistar (LATI) rats; conditions: for Antitetrabenazine activity (%): rats, 30 mg/kg intraperitoneally, one hour before tetrabenazine
Experimental: as §1
3. Inhibition of Tetrabenazine Catalepsy
The test was carried out on male rats each weighing 160 to 180 g. The test materials were administered intraperitoneally, in a dose of 30 mg/kg, one hour before tetrabenazine administration.

[5] = mice, pentylenetetrazole 125 mg/kg s.c.

SMILES	analgesic activity (in words) ([1]; acetic acid writhing, mice)	Analgesic activity (%) ([1]; mice, 30 mg/kg orally, 0.4 ml 0.6% acetic acid i.p., 30 minutes, vs control)	Antipyretic activity (%) [2]	ED50 ([3]; Mus musculus, po; value marked ^x = ED50; b) tonic extensoric spasm, mice, orally, pentylenetetrazole 125 mg/kg s.c.)	Antitetrabenazine activity (%) [4]	influence on writhing syndrom induced with acetic acid (in words) ([1]; 30 mg/kg dose, mice)	ED50 [1]	Antispasm activity metrazole b [3, 5]	ED50 ([1]; value marked ^x = ED50, mice, orally, 0.6% acetic acid i.p. writhing)	analgesic activity relative to reference compound (Na-salicylate) ([1]; acetic acid writhing, mice)	anticonvulsive effect (in words) ([3]; test not given)	antidepressive effect (in words) ([4]; test not given)
CCOc1cc2c(cc1OCC)C(C(CO)CO)N(CC(O)CC)CC2.Cl (stereo not drawn) [Compound B, 1-[bis-(Hydroxymethyl)-methyl]-2-(β-hydroxybutyl)6,7-diethoxy-1,2,3,4-tetrahydroisoquinoline hydrochloride]	somewhat lower analgesic activity than the above 2-methyl-compound	40.0%	20.0%	20 mg/kg	20.0%							
O=C(O)c1ccccc1O [Na--salicylate, Na-salicylate, reference compound]			40.0%			practically not influenced	113 mg/kg	20.0				
COc1cc2c(cc1OC)C(C(CO)CO)N(C)CC2.Cl (centres unmarked) [Compound A, 1-[bis(hydroxymethyl)-methyl]-2-methyl-6,7-dimethoxy-1,2,3,4-tetrahydroisoquinoline hydrochloride]	valuable analgesic activity		20.0%		20.0%			20.0	28 mg/kg	four times more active than the reference compound	remarkable anticonvulsive and antidepressive effects	remarkable anticonvulsive and antidepressive effects

Source: patent US4668688A, “N-substituted isoquinoline derivatives and pharmaceutical compositions containing them” (Richter Gedeon Vegyeszeti Gyar R.T., priority 1983, dated 1987)
